The test system of this assay is male ICR mice. Nature of the assay: Elevated plus maze (EPM) test, intraperitoneal injection. The format is in vivo, mouse. Conditions: for Closed arm number of entries / Closed arm residence time / Open arm number of entries / Open arm residence time / Open arm/closed arm frequency ratio / Open arm/closed arm time ratio: mice, intraperitoneal, 5 min before entering the maze. The source says:
The active ingredient used in the following pharmacological experiment, the compound shown in Formula (I) of the present application, is the final product in Example 1 of the present application, namely (1R,6S,9R)6,10,10-trimethyl-2-(4,4,4-trifluorobutyl)-11-oxatricyclo [7.2.1.0^1,6]dodec-2-ene (hereinafter referred to as Compound 2). Compound 2 and an excipient PVP (povidone K30) were mixed in an ethanol solution in a mass ratio of 1:15, spin-dried, and prepared into a preparation form of Compound 2 (the following Compound 2 refers to the preparation form of Compound 2). The preparation form of which the active ingredient was 4-butyl-α-agarofuran (BAF for short) was used as a positive drug, a preparation method for this preparation was the same as that of the preparation of Compound 2, and the following BAF refers to this preparation of BAF. PVP was a blank control. In addition, the administration dose was calculated according to a crude drug.
This model is one of the most commonly used animal models in the research of antianxiety drugs. The elevated plus maze is composed of an open arm (30×5×0.5 cm) and an closed arm (30×8×15 cm) that are crossed in a positive cross shape, and the instrument is suspended 50 cm above the ground. Due to the narrowness, suspension, and brightness of the open arm, there may be internal “fear” or conflict in the open arm, and on the contrary, it more complies with the nature of rodents in the closed arm. 5 min after administration, a mouse is placed in the center of the maze, and its head faces to the open arm. Open-arm and closed-arm entries and residence times in both arms during the experimental period (usually 5 min) are recorded respectively. The percentages of the open arm entries and the open arm residence times respectively accounting for the total entries (sum of the open arm and closed arm entries) and the total time (sum of the open arm and closed arm residence times) are calculated, as an indicator for evaluating the anxiety. Generally speaking, a drug is considered to have antianxiety effects in the case that the open arm cumulative residence time is prolonged without reducing the open arm and closed arm entries.
The experiment used male Institute of Cancer Research (ICR) mice (purchased from Beijing Weitong Lihua Experimental Animal Technology Co., Ltd.), the weight was 18-20 g, the mice were randomly divided into 7 groups according to the weight, and there were 13 mice in each group. Grip adaptation training was conducted on the mice before the experiment. Before the experiment, the mice were fasted for 12 hours. It was administered by an intraperitoneal injection mode. 4-butyl-α-agarofuran (BAF for short) was used as a positive drug, and PVP was a blank control. The specific grouping and disposal modes are as follows:
During detection, after intraperitoneal injection of BAF/Compound 2, each mouse was immediately placed in an open animal box and allowed to move freely for 5 min, then the mouse was placed on a central platform of the elevated plus maze, its head faced to a fixed open arm. The detection was started, timed for 5 min, and recorded with a supermaze software by using a camera head. After all the experiments were completed, the residence times (s) of the mice in the open arm and the closed arm, the open arm and closed arm entries, and the time ratios and frequency ratios of the open arm and closed arm entries were recorded with the supermaze software. 1 was added to the number of entry arms with a latency of 0.

SMILES strings stand for the structures. Values joined by “and” are separate entries in the source; they are usually repeats but may differ in a detail not shown here. Equal entries are not always repeated.

In the case of `CCCCC1=CCC[C@@]2(C)CC[C@@H]3C[C@]12OC3(C)C` [BAF, 4-butyl-α-agarofuran, reference compound], where the note is “2 mg/kg, 2 mg/kg”, the “Closed arm number of entries” value was 10.31 ± 1.13 and 11.22 ± 1.5 and 9.90 ± 1.19; the “Closed arm residence time” value was 143.9 ± 9.32 s and 148.89 ± 8.27 s and 146.67 ± 7.95 s; the “Open arm number of entries” value is 8.62 ± 0.92 and 8.78 ± 1.1 and 8.80 ± 1.14; the “Open arm residence time” value is 115.97 ± 9.71 s and 110.32 ± 8.91 s and 110.04 ± 6.30 s. For the same compound, for the setting “2 mg/kg, 2 mg/kg”, the “Open arm/closed arm frequency ratio” value was 0.85 ± 0.06 and 0.80 ± 0.07 and 0.89 ± 0.07; the “Open arm/closed arm time ratio” value was 0.93 ± 0.16 and 0.79 ± 0.12 and 0.80 ± 0.11. Also, under “4 mg/kg, 4 mg/kg”, the “Closed arm number of entries” value was 9.23 ± 0.57 and 8.89 ± 0.79 and 9.29 ± 0.68; the “Closed arm residence time” value is 153.35 ± 7.35 s and 162.64 ± 5.96 s and 144.17 ± 12.09 s; the “Open arm number of entries” value is 7.38 ± 0.58 and 6.56 ± 0.4 and 8.29 ± 0.87; the “Open arm residence time” value is 117.29 ± 7.44 s and 106.13 ± 3.91 s and 128.84 ± 11.89 s. Where the note is “4 mg/kg, 4 mg/kg”, the “Open arm/closed arm frequency ratio” value was 0.82 ± 0.07 and 0.77 ± 0.06 and 0.91 ± 0.09; the “Open arm/closed arm time ratio” value is 0.82 ± 0.11 and 0.66 ± 0.04 and 0.98 ± 0.18. For the same compound, under “8 mg/kg, 8 mg/kg”, the “Closed arm number of entries” value was 9.85 ± 0.72 and 9.78 ± 1.00 and 9.60 ± 0.87; the “Closed arm residence time” value is 162.19 ± 10.92 s and 158.24 ± 14.9 s and 165.34 ± 13.19 s; the “Open arm number of entries” value was 7.69 ± 0.91 and 8.11 ± 1.27 and 7.10 ± 0.95; the “Open arm residence time” value was 110.07 ± 9.77 s and 113.25 ± 12.84 s and 107.74 ± 11.86 s. Besides, under “8 mg/kg, 8 mg/kg”, the “Open arm/closed arm frequency ratio” value is 0.76 ± 0.05 and 0.76 ± 0.07 and 0.72 ± 0.06; the “Open arm/closed arm time ratio” value was 0.76 ± 0.10 and 0.81 ± 0.13 and 0.74 ± 0.12.
As for `CC1(C)O[C@]23C[C@H]1CC[C@]2(C)CCC=C3CCCC(F)(F)F` [Compound 2, (1R,6S,9R)6,10,10-trimethyl-2-(4,4,4-trifluorobutyl)-11-oxatricyclo [7.2.1.0^1,6]dodec-2-ene], where the note is “at both low and medium doses, especially low dose”, the “Efficacy compared with BAF” value is reported as “better efficacy than BAF”. Also, the “Efficacy compared with BAF” value (at low doses) is “better efficacy”. Further, the “Antianxiety effects in elevated plus maze” value (intraperitoneal doses of 2.4, 4.8 and 9.6 mg/kg) is recorded as “significant antianxiety effects”. For the same compound, where the note is “2.4 mg/kg”, the “Closed arm number of entries” value was 10.92 ± 0.84, the “Closed arm residence time” value amounted to 112.68 ± 8.68 s, the “Open arm number of entries” value came out at 9.23 ± 0.47 and the “Open arm residence time” value came to 144.06 ± 8.10 s. For the setting “2.4 mg/kg”, the “Open arm/closed arm frequency ratio” value turned out to be 0.89 ± 0.06 and the “Open arm/closed arm time ratio” value was 1.48 ± 0.24. Besides, under “4.8 mg/kg”, the “Closed arm number of entries” value was determined as 10.00 ± 0.57, the “Closed arm residence time” value is 149.91 ± 8.22 s, the “Open arm number of entries” value was found to be 9.08 ± 0.69 and the “Open arm residence time” value came to 118.65 ± 6.32 s. Moreover, for the setting “4.8 mg/kg”, the “Open arm/closed arm frequency ratio” value was 0.93 ± 0.07 and the “Open arm/closed arm time ratio” value stood at 0.86 ± 0.11. Also, where the note is “9.6 mg/kg”, the “Closed arm number of entries” value is recorded as 9.85 ± 1.08, the “Closed arm residence time” value was 139.13 ± 11.37 s, the “Open arm number of entries” value is 9.31 ± 1.12 and the “Open arm residence time” value came to 115.0 ± 8.07 s. Moreover, for the setting “9.6 mg/kg”, the “Open arm/closed arm frequency ratio” value is 0.99 ± 0.10 and the “Open arm/closed arm time ratio” value is recorded as 0.93 ± 0.12.

The values are drawn from US20230391741A1, “AGAROFURAN COMPOUND, PREPARATION METHOD THEREFOR, AND APPLICATION THEREOF” (BEIJING CHY PHARMACEUTICAL TECHNOLOGY CO, LTD., priority 2021, published 2023).
